Results published in patent US5821046A, “RNA oligonucleotides that bind HIV tat protein” (RiboTargets Holdings PLC, priority 1990, dated 1998).
Entries after “also recorded” stand apart in the source; their conditions may differ. Where two headings read alike, the source gives them in different places.

Experiments:
[1] = test system: tat-dependent promoter activity of viral LTR carrying the TAR sequence; test: trans-activation CAT assay, test plasmids transfected into HeLa/C63/tat cells; assay type: cell-based, HeLa/C63/tat (clone 9) cells
Description: If tat binding to TAR is necessary for trans-activation, then viral LTRs carrying TAR sequences with low affinities for tat should always have reduced tat-dependent promoter activity in vivo. Site-directed mutagenesis experiments on TAR have shown that trans-activation requires sequences in both the U-rich bulge (10, 11) and the loop sequence (12, 27, 28). These observations have now been extended, using TAR mutations with known affinities for tat in transfection experiments, the results of which are shown in FIG. 8. The experiments used either HeLa cells (FIG. 8a-d) or a constitutive producer of tat, HeLa/C63/tat cells (FIG. 8e-f).
The TAR sequences depicted in FIG. 3 [SEQ ID NO: 1-11] were introduced into a test plasmid, pD5-3-3, which carries a LTR and approximately 300 bases of 5' flanking sequences derived from the infectious proviral clone NL4 (29). The bacterial chloramphenicol acetyltransferase (CAT) gene and SV40 intron and terminator sequence from pSV2-CAT (30) was inserted downstream of TAR by cloning into the HindIII site at +77. Trans-activation was measured either by cotransfection of HeLa cells with the test plasmids and the tat expression plasmid pC63-4-1 (6) (panels a-d in FIG. 10), or by transfection of the test plasmids alone into HeLa/C63/tat (clone 9) cells (panels e-h).
In these experiments, cells were plated at a density of 3×10^5 in a T25 flask and transfected by the calcium phosphate method (31). Transfections in HeLa cells used 8.0 ug of test plasmid, 1.0 to 10 ug of pC63-4-1 plasmid and 10 ug of calf thymus carrier DNA. Transfections of the HeLa/C63/tat (clone 9) cells used 0.5 to 10 ug of test plasmid and 10 ug of calf thymus carrier DNA. The HeLa/C63/tat (clone 9) cells were prepared by infection of HeLa cells with helper-free amphotrophic C63-4-1 MoMuLV-tat virus. Following selection in 2mg/ml G418 individual clones were expanded and the expression of tat protein confirmed by immunoprecipitation with monoclonal antibodies to tat (6). Cell extracts were prepared at 48h post-transfection in 150 ul lysis buffer (0.2% NP40, 20 mM Tris pH 8.0, 4mM MgCl2), heat inactivated at 65° C. for 10 min and stored at -20° C. To ensure that CAT activity was measured in the linear range of the assay (30), at less than 50% conversion of chloramphenicol in its acetylated forms, for each transfection, three different aliquots containing from 5 to 70 ul extract were assayed for CAT activity. Reactions contained extract diluted with lysis buffer to a final volume of 70 ul, 10 ul AcCoA (2.5mg/ml in lysis buffer); 0.5 ul (14C) - chloramphenicol (60 mCi/m mol) and were incubated for 45 min at 37° C. Reaction products were extracted with ethylacetate, separated by thin layer chromatography on silica plates and bands were counted in scintillation fluid to calculate the chloramphenicol conversion efficiency per 10 ul of extract.

HIV-1 tat protein = assay type: binding; conditions: 32P-labeled RNA transcript, 0 to 600 ng tat
Description: i) Gel retardation assays (FIG. 6) Method RNA transcripts were prepared by transcription with either T3 or T7 RNA polymerases of TAR regions residues +1 to +57, cloned between the HindIII and EcoRI sites of the Bluescribe M13+expression vector (Stratagene). RNA transcripts corresponding to HIV-1 TAR [SEQ ID NO: 1], SSA [SEQ ID NO: 3], SAA and SAS [SEQ ID NO: 5] were synthesized from clones linearized with EcoRI and transcribed with T3 RNA polymerase. RNA transcripts corresponding to the antisense HIV-1 TAR […], AAS , ASS [SEQ ID NO: 4], and ASA (not shown) sequences were prepared from the same plasmids linearized with HindIII and transcribed using T7 RNA polymerase. All other RNA molecules were synthesized using T3 RNA polymerase following EcoRI cleavage of the plasmid vector. The RNA products each carry 13 nucleotides of vector sequence at their 5' end and four nucleotides at their 3' ends. […] Transcription mixtures contained 1 ug linearized plasmid, 40 mM Tris-HCl pH 8.0, 10 mM MgCl 2, 2 mM Spermidine-HCl, 50 mM NaCl, 100 uM each ribonucleotide triphosphate, 40 uCi (alpha-^32 P) UTP (410 Ci/m mol) and 10 units of RNA polymerase in a final volume of 30 ul and were incubated at 37° C. for 30 minutes. After phenol extraction and precipitation from ethanol the RNA was purified from a 9% polyacrylamide denaturing gel. The specific activity of the RNA product was determined and appropriate amounts were used in binding assays. Binding reaction mixtures (1 5ul) contained 1 ng of uniformly labeled RNA probe, 0.5 ug calf thymus DNA, 0.2 ug yeast TRNA, 40 units RNAsin (Promega), 50 mM Tris-HCl and 20 mM KCl and 0 to 600 ng tat protein, prepared from E. coli beta-galactosidase-tat fusion proteins, as described previously (6). After incubation at either 30° C. or 4° C. for 10-20 minutes, the reaction mixtures were applied to a 6% non-denaturing polyacrylamide gel (Acrylamide: Bis, 40:0.5) in 3.3 mM sodium acetate, 6.7 mM Tris (adjusted to pH 7.9 with HCl). The gel buffer was recirculated during electrophoresis at 35 mA for approximately 2 hours at room temperature. Gels were dried and exposed to X-ray film at -80° C. using intensifying screens.

Row | Substance | CAT expression [1] | complex formation with tat in gel retardation assay (HIV-1 tat protein) | complex formation with tat in gel retardation assay (HIV-1 tat protein; listed as SEQ ID NO: 8) | complex formation with tat in gel retardation assay (HIV-1 tat protein; listed as delta U3 (bulge))
1 | ASS: anti-sense lower stem, sense upper stem and loop sequences (GGGUUCCCUAGUUAGACCAGAUUUGAGCCUGGGAGCUCUCUGGCUAACCAGAGAGACCC; chemistry not given here) | wild-type expression levels | discrete complex formation |  | 
2 | G28 to C28: TAR point mutation expected to disrupt the top of the TAR stem/loop structure (GGGUCUCUCUGGUUAGACCAGAUUUGACCCUGGGAGCUCUCUGGCUAACUAGGGAACCC; chemistry not given here) | null phenotypes | failed to bind to tat |  | 
3 | G to U (loop): TAR RNA in which residues 32-34 are changed to uridine (U) (GGGUCUCUCUGGUUAGACCAGAUUUGAGCCUUUUAGCUCUCUGGCUAACUAGGGAACCC; RNA, backbone not given here) | significant CAT activity observed at high plasmid concentrations | discrete complex formation |  | 
4 | HIV-1 TAR (UUU): full length HIV-1 TAR RNA of 59 residues prepared by transcription, wild type, UUU bulge (GGGUCUCUCUGGUUAGACCAGAUUUGAGCCUGGGAGCUCUCUGGCUAACUAGGGAACCC; unmodified RNA) [reference compound] |  | discrete complex formation |  | 
5 | SAS: anti-sense upper stem flanked by sense lower stem and loop sequences (GGGUCUCUCUGGUUAGCCAGAGAGCCUGGGAGCUCAAAUCUGGUCUAACUAGGGAACCC; chemistry not given here) | no significant increase over basal levels of CAT expression | No complexes were formed; also recorded: fail to form complexes |  | 
6 | SSA: sense stem, antisense loop sequence (GGGUCUCUCUGGUUAGACCAGAUUUGAGCUCCCAGGCUCUCUGGCUAACUAGGGAACCC; chemistry not given here) | no significant increase over basal levels of CAT expression | discrete complex formation |  | 
7 | delta U (bulge): TAR RNA in which residues 23-25 are deleted (GGGUCUCUCUGGUUAGACCAGAGAGCCUGGGAGCUCUCUGGCUAACUAGGGAACCC; RNA, backbone not given here) | null phenotypes |  | abolished tat binding | No complexes were formed
